# Laboratory results from US9357924B2, “Composition, method, system and kit for optical electrophysiology” (The Research Foundation of State University of New York, priority 2006, dated 2016).
# Values joined by “and” are separate entries in the source; they are usually repeats but may differ in a detail not shown here. Identical values can stand only once.
# Columns and labels:
# [1] = test system: mouse heart cardiac tissue; experiment: Dye washout dynamics of OP amplitude in mouse heart; conditions: mean ± SD
# Description: (§1) The dye testing experiments were performed on typical model animals: mice (n=6), rat (n=11), guinea pig (n=6), pig (n=13). All experimental protocols conformed to the Guide for the Care and Use of Laboratory Animals and were approved by the Committee for the Humane Use of Animal of the SUNY Upstate Medical University. Mice (C57BL/6, 20-25 g) were injected with ketamine (200 mg/kg IP), rats (Sprague Dawley, 300-400 g female) and guinea pigs were injected with heparin (550 U/100 g), and euthanized by sodium phentobarbital (1 ml/100 g for rats and 0.75 ml/100 g for guinea pigs). The heart was then immediately excised and placed in ice-cold cardioplegia solution (CPS) composed of (in mmol/l) 280 Glucose, 13.44 KCl, 12.6 NaHCO3, 34 Mannitol. […] Perfusion and superfusion temperatures were continuously monitored and kept at 36±1° C. by using two sets of glass heating coils and heated-refrigerated circulators. […]
# (§2) The acquired images were offline processed to improve their quality. The background autofluorescence (endogenous fluorescence recorded under the same conditions before dye injection) was subtracted from each frame to obtain the voltage-dependent optical signal. To allow temporal alignment and subsequent averaging of successive paced action potentials, the trigger for the pacing stimulus was recorded as a single pixel in the movie frames. […]
# rat heart cardiac tissue [2] = experiment: Dye washout dynamics of OP amplitude in rat heart; conditions: mean ± SD
# Description: as §1, §2
# rat heart cardiac tissue [3] = experiment: Optical action potential recording in Langendorff-perfused rat heart (Tyrode's solution); conditions: mean ± SD
# Description: as §1
# (§3) After a 20-30 min stabilization period during which the perfusion flow and ECG was monitored, the excitation-contraction uncoupler diacetyl-monoxime (DAM) was added to the perfusate (15 mmol/l) to stop contractions of cardiac tissue. […]
# [4] = test system: mouse heart cardiac tissue; experiment: Optical action potential recording in Langendorff-perfused mouse heart (Tyrode's solution); conditions: mean ± SD
# Description: as §1, §3
# [5] = Absorbance spectra in ethanol; format: physicochemical
# Description: Absorbance spectra were measured in ethanol (panel A), and a model membrane made of multilamellar lipid vesicles (MLV) composed of egg phosphatidyl choline (panel B). The absorbance spectra reveal single maxima that represent a high level of the dye purity and absence of different configurational isomers. The absorption maxima for JPW6003 in ethanol occurred at 603 nm. For the dye JPW 6033 all absorption maxima are shifted 20-40 nm to shorter wavelengths, but absorbance is 2-3 times higher. Though the long wavelength absorbance peaks range from 561 nm to 603 nm in ethanol, and 526 nm to 539 nm in MLV, in practical applications both dyes can be efficiently excited over a much broader range (500-700 nm), allowing one to optimize excitation for the dye in different tissues, including blood perfused tissue.
# [6] = test system: guinea pig heart cardiac tissue; experiment: Dye washout dynamics of OP amplitude in guinea pig heart; conditions: mean ± SD
# Description: as §1, §2
# pig cardiac tissue = experiment: Dye washout dynamics of OP amplitude in pig cardiac tissue; conditions: mean ± SD
# Description: as §1, §2
# blood-perfused pig heart = experiment: Optical mapping of blood-perfused Langendorff pig heart; conditions: for ΔF/F (relative fluorescence): blood perfusion
# Description: Blood-perfused Langendorff preparation of pig heart was implemented. Briefly, approximately 1.5 liters of modified Tyrode's solution (37° C., composition in mmol/L: Na^+, 157; K^+, 4.7; Ca^2+, 1.5; Mg^2+, 0.7, H2PO4^−0.5, Cl^−137.6, HCO3^−28.0, glucose 11.0, dextran 4% and insulin 10 U) was infused in an external jugular vein, and blood-Tyrode's mixture was collected at equal rate from a carotid artery. The heart was perfused with blood-Tyrode mixture in a Langendorff apparatus. The blood-Tyrode mixture will be oxygenated (CO2 5%/02 95%), heated (37° C.) and filtered using a Liliput hollow fiber oxygenator (COBE Cardiovascular, Arvada, Co). Collector tubes were inserted into the right and left ventricles to collect all the blood coming out of the coronary sinus and Thebesian veins. Thereafter, the heart was “sealed” to ensure that all the outflow of perfused blood is collected for recirculation. The heart was placed in a warm bath with heated water-jacketed transparent glass wall and was superfused with an oxygenated, heated Tyrode solution. After a 20-30 min stabilization verified by a vigorous contraction and normal sinus rhythm, the excitation-contraction uncoupler diacetyl-monoxime (DAM) was added to the perfusate (15 mmol/l) to stop contractions. ECG was monitored throughout the experiment to ensure stable capture of the ventricles by the pacing electrode. […]
# Blood-perfused pig heart imaging was done in a similar way. Briefly, the dye was excited with a 400-watt tungsten-halogen lamp (excitation filter, 650+/−20 nm) and the fluorescence was collected above 715 nm using a Computar objective lens (HG1208FCS_HSP, F0.8, focal length 12 mm,) and externally cooled CCD camera (Dalsa CA-D1-0128T, Ontario, Canada) at the frame rate of 400-800 fps and 12-bit resolution.
# The acquired images were offline processed to improve their quality. The background autofluorescence (endogenous fluorescence recorded under the same conditions before dye injection) was subtracted from each frame to obtain the voltage-dependent optical signal. To allow temporal alignment and subsequent averaging of successive paced action potentials, the trigger for the pacing stimulus was recorded as a single pixel in the movie frames. […] Dye loading and washout dynamics were assessed from averaged sets of OP recordings (3-5 specimens). To facilitate comparison, fluorescence and OP signals were normalized to their peak values (defined as the difference between maximum and minimum values) in some figures.
# For the dye loading dynamics, the time to reach peak values of background fluorescence (membrane voltage independent component of the dye molecules fluorescence), OP, and ΔF/F were determined by simple visual inspection of the dynamic plots. […]
# [7] = test system: pig cardiac tissue (right free ventricular wall); experiment: Optical action potential recording in Tyrode-perfused pig right ventricular wall preparation; conditions: for ΔF/F (relative fluorescence, maximal fluorescence efficacy): pig tissue, Tyrode-perfused, epifluorescence; for ΔF/F (relative fluorescence): pig, transillumination mode, thick cardiac tissue ~10 mm
# Description: The dye testing experiments were performed on typical model animals: mice (n=6), rat (n=11), guinea pig (n=6), pig (n=13). All experimental protocols conformed to the Guide for the Care and Use of Laboratory Animals and were approved by the Committee for the Humane Use of Animal of the SUNY Upstate Medical University. Mice (C57BL/6, 20-25 g) were injected with ketamine (200 mg/kg IP), rats (Sprague Dawley, 300-400 g female) and guinea pigs were injected with heparin (550 U/100 g), and euthanized by sodium phentobarbital (1 ml/100 g for rats and 0.75 ml/100 g for guinea pigs). The heart was then immediately excised and placed in ice-cold cardioplegia solution (CPS) composed of (in mmol/l) 280 Glucose, 13.44 KCl, 12.6 NaHCO3, 34 Mannitol. After removal of extraneous tissues, the aorta was cannulated and Langendorff perfusion was started with a standard oxygenated Tyrode's solution (composed of (in mmol/l) 130 NaCl, 24 NaHCO3, 1.2 NaH2PO4, 1.0 MgCl2, 5.6 Glucose, 4.0 KCl, 1.8 CaCl2; buffered to a pH of 7.4) at 80 mm Hg and 36° C. Young pigs (15-20 kg,) were heparinized (500 IU, IV) and subsequently anesthetized with sodium phentobarbital (35 mg/kg IV). The heart was rapidly removed and Langendorff-perfused with cold (4° C.) CPS. The right free ventricular wall was quickly excised, and the right coronary artery was cannulated. Non-perfused tissue was removed, leaving a preparation of typically 5×5 cm and a thickness of 8 mm. The preparation was stretched on a plastic frame and perfused with a standard oxygenated Tyrode's solution at 80 mm Hg and 36° C. Whole cannulated heart (mouse, rat or guinea pig) or stretched pig tissue was put into special transparent chamber and superfused with the same solution at a rate of 30-40 ml/min. Perfusion and superfusion temperatures were continuously monitored and kept at 36±1° C. by using two sets of glass heating coils and heated-refrigerated circulators. Electrodes were sutured to whole hearts or inserted into pig tissue to monitor ECG. All preparations were continuously paced at the frequency 6.7 Hz, 5 Hz, 3.3 Hz and 2 Hz for mouse, rat, guinea pig, and pig, respectively.
# After a 20-30 min stabilization period during which the perfusion flow and ECG was monitored, the excitation-contraction uncoupler diacetyl-monoxime (DAM) was added to the perfusate (15 mmol/l) to stop contractions of cardiac tissue. After a 20 minute equilibration, the preparation was stained by injecting voltage-sensitive dye solution into the perfusion flow (a bolus injection near cannula).
# Solid dyes were dissolved in DMSO to make 10-50 mM stock solution that was kept frozen. […]
# [8] = test system: guinea pig heart cardiac tissue; experiment: Optical action potential recording in Langendorff-perfused guinea pig heart (Tyrode's solution); conditions: mean ± SD
# Description: as §1, §3
# [9] = Voltage-dependent fluorescence response in voltage-clamped hemispherical lipid bilayer (HLB) model membrane
# Description: Voltage-dependent spectra in model membranes were measured by a voltage-clamped hemispherical lipid bilayer (HLB) apparatus modified for near infrared fluorescence detection. In this experiment, light from a tungsten lamp is sent through a monochromator and then focused onto the bottom of the HLB, stained with dye from the external aqueous bathing solution. The monochromator is then scanned over the wavelength range of interest while a train of ±50 mV voltage steps are applied to the membrane at a frequency of 40 Hz and the modulation of the detected light signal is measured with a lockin amplifier. The transmitted light signal is collected at 180° from the incident light. Fluorescence is collected at 90° via fiber optic light guide through cutoff filters at 715 nm.
# various cardiac tissues = experiment: Dye performance in various cardiac tissues compared with di-4-ANEPPS; conditions: in any of the tested species
# Description: as §1, with “Mannitol. After removal of extraneous tissues, the aorta was cannulated and Langendorff perfusion was started with a standard oxygenated Tyrode's solution (composed of (in mmol/l) 130 NaCl, 24 NaHCO3, 1.2 NaH2PO4, 1.0 MgCl2, 5.6 Glucose, 4.0 KCl, 1.8 CaCl2; buffered to a pH of 7.4) at 80 mm Hg and 36° C. Young pigs (15-20 kg,) were heparinized (500 IU, IV) and subsequently anesthetized with sodium phentobarbital (35 mg/kg IV).” for “Mannitol.”
Molecule,50% washout time of OP amplitude [1] [h],50% washout time of OP amplitude (rat heart cardiac tissue [2]) [h],"ΔF/F (relative fluorescence, maximal fluorescence efficacy) (rat heart cardiac tissue [3]) [%]","ΔF/F (relative fluorescence, maximal fluorescence efficacy) [4] [%]",absorption maxima (excitation wavelength) [5] [nm],50% washout time of OP amplitude [6] [h],50% washout time of OP amplitude (pig cardiac tissue) [h],time of slow increase in total fluorescence and OP (dye loading) (blood-perfused pig heart; dye injected during recirculated-blood-perfusion) [h],"ΔF/F (relative fluorescence) (blood-perfused pig heart; pig, Tyrode's-perfused loading) [%]","ΔF/F (relative fluorescence) (blood-perfused pig heart; pig, blood-perfused loading (dye injected into blood flow)) [%]","steady-state level of deltaF/F during blood perfusion (blood-perfused pig heart; pig, regardless of loading in Tyrode's or directly into blood flow) [%]","ΔF/F (relative fluorescence, maximal fluorescence efficacy) [7]",ΔF/F (relative fluorescence) [7],"ΔF/F (relative fluorescence, maximal fluorescence efficacy) [8] [%]",delta F/F (relative fluorescence) in a model membrane [9] [%],OP amplitude higher than that of di-4-ANEPPS (various cardiac tissues)
"CCCCN(CCCC)c1ccc2cc(/C=C/C=C/c3cc[n+](CCC[N+](C)(C)C)c4ccccc34)ccc2c1.[Br-].[Br-] [JPW6003, Di-4-ANBDQPQ]",1.4 ± 0.2,2.50 ± 0.28,11.1 ± 1.6,9.1 ± 1.4,603,2.80 ± 0.31,3.33 ± 0.31,~1,12,5.5 ± 1.5,~5,18.7% and 18.7 ± 1.1%,approximately 20%,11.3 ± 1.0,–,–
CCCCN(CCCC)c1ccc2cc(/C=C/c3cc[n+](CCCS(=O)(=O)[O-])cc3)ccc2c1 [di-4-ANEPPS],–,–,–,–,–,–,–,–,–,–,–,–,–,–,9,–
Di-4-ANBDQBS [JPW6033],1.0 ± 0.1,1.8 ± 0.2,14 ± 1.5,10 ± 1.5,–,2.0 ± 0.2,2.50 ± 0.28,–,–,–,–,15 ± 1.0%,14 ± 1.1%,12.5 ± 1.4,–,50-100%
